Experimental data: BindingDB's records for doi:10.1016/j.bmcl.2011.10.055 (Cephalon, 2011)

What follows are molecules tested against Insulin receptor (Homo sapiens, UniProt P06213) (assay: Inhibition of GST-tagged intracellular domain of IR by homogeneous time-resolved fluorescence assay).

IC50, > 10 µM:
C=c1nns/c1=c1\[nH][nH]c(=O)c1=Cc1cn(C)c2cccc(OCc3ccc(F)cc3)c12
C=c1nns/c1=c1\[nH][nH]c(=O)c1=Cc1cn(C)c2cccc(OCc3ccccc3)c12
C=c1nns/c1=c1\[nH][nH]c(=O)c1=Cc1cn(C)c2cccc(OCc3ccc(F)cc3F)c12
C=c1nns/c1=c1\[nH][nH]c(=O)c1=Cc1cn(C)c2cccc(OCc3ccccc3F)c12
C=c1nns/c1=c1\[nH][nH]c(=O)c1=Cc1cn(C)c2cccc(OCc3cccc(F)c3)c12
